# Source: US20070023364A1, “Tetrasilver Tetraoxide as Disinfective Agent for Cryptosporidium” (priority 2005, published 2007)
# Several values for one entry are separate records, joined by “and”; a condition that tells them apart may be missing. Identical values can stand only once. Like-named read-outs stand apart in the source and are kept apart here.
# How the values were obtained:
# [1] = test system: Cryptosporidium parvum oocysts
# Description: Excystation, i.e., the release of sporozoites from the oocysts, was used to assess viability of the Cryptosporidium samples. COREXIT is 2-butoxyethanol (ethyleneglycol monobutyl ether), butyl cellosolve, butyl glycol, glycol ether eb. Other ethers similar to ethyleneglycol monobutyl ether may be used. This dispersant is composed of about 48% nonionic surfactants, including ethoxylated sorbitan mono- and trioleates (Tween 80 and Tween 85) and sorbitan monooleate (Span 80), about 35% anionic surfactants, including sodium dioctyl sulfosuccinate (AOT), and about 17% ethylene glycol monobutyl ether as a solvent EMULPHOR is an emulsifier derivative of corn oil. EMULPHOR may also be used rather than ALKAMUS. ALKAMUS is a polyethoxylated castor oil 40 mole ethoxlate. EMULPHOR from BASF, is a high molecular weight ether sulphate.
# Cryptosporidium oocysts = assay: Iodine exposure of Cryptosporidium oocysts (killing); type: cell-based; conditions: iodine up to 100 ppm (saturation level), 30 and 60 min exposure
# Method: (§1) Test studies confirmed these observations using doses of 5 and 15 ppm of iodine against three waterborne pathogens (Escherichia coli, Enterococcus faecalis and Pseudomonas aeruginosa). […] Unfortunately, experiments using iodine even up to 100 ppm (saturation level) were ineffective in killing Cryptosporidium oocysts when exposed for 30 and 60 min. periods, respectively.
# [2] = test system: Escherichia coli, Enterococcus faecalis and Pseudomonas aeruginosa; assay: Iodine disinfection of waterborne bacterial pathogens; type: cell-based; conditions: 5 ppm iodine
# Method: as §1
# Cryptosporidium = conditions: ozone-exposed Cryptosporidium, accepted by USEPA; cited from earlier work
# [3] = test system: Cryptosporidium parvum oocysts; remark: listed apart in the source
# Method: Disinfection was assessed using cell culture infectivity as the test, this procedure being more definitive than excystation. […] The 90% inactivation is a Log10 reduction of 1.0.
# Infectivity in cell cultures was used in this study. Although excystation is an acceptable way to assay for live sporozoites, infectivity in cell cultures is a definitive assay generally accepted by the scientific community for assessing Cryptosporidium oocyst viability/non-viability. This assay is virtually equivalent to using living mammals to confirm infectious organisms, but it provides better quantitation of viable/infectious organisms.
# E. coli = conditions: activated TTO, kill within 10 min or less; cited from earlier work
# aquatic species = conditions: USEPA scientific findings; cited from earlier work
# [4] = activated tetrasilver tetraoxide; cited from earlier work
# avian species = conditions: USEPA scientific findings; cited from earlier work
# [5] = 3 mg/L TTO, 15 mg/L persulfate, 1% cocktail, 60 min
# [6] = 2 and 3 mg/L activated TTO, irrespective of cocktail used
# [7] = activated 2 mg/L TTO in 1.0% cocktail, 60 min (study with 2, 5, 10 mg/L)
# [8] = 2 ppm tetrasilver tetraoxide and 10 ppm potassium monopersulfate, excystation
smiles,measurement,setting,value
II [iodine],inactivation of oocysts,"[1]; saturated iodine solution with 1% cocktail of COREXIT and ALKAMUS EL 620, 3 hours",ineffective
same,killing of Cryptosporidium oocysts,Cryptosporidium oocysts,ineffective
same,log10 reduction,[2]; within 5 min,6 log10
same,log10 inactivation,[2]; within 10 min of exposure,≤ 8 log10
O=[O+][O-] [ozone],Log10 reduction,Cryptosporidium,2.0 Log 10
[Ag+].[Ag+].[Ag+].[Ag+].[O-2].[O-2].[O-2].[O-2] [tetrasilver tetraoxide],"Average Infectious Oocysts × 100,000",[3]; 1 mg/L TTO,"68 × 100,000"
same,Average Log10 Reduction of Viable Oocysts (Inactivation),[3]; 1 mg/L TTO,0.23 Log10
same,Average Percent Oocyst Inactivation of all Variables,[3]; 1 mg/L TTO,32.0%
same,Log10 reduction,"[3]; 1 mg/L TTO, 0% cocktail, 60 min",0.6 Log10
same,inactivation,"[3]; 1 mg/L TTO, 0% cocktail, 60 min, 1.2×10^7 oocysts/50 mL",75%
same,"Infectious Oocysts × 100,000 using 1% Cocktail","[3]; 1 mg/L TTO, 5 mg/L persulfate, 1% cocktail","100 × 100,000"
same,"Average Infectious Oocysts × 100,000",[3]; 2 mg/L TTO,"35 × 100,000"
same,Average Log10 Reduction of Viable Oocysts (Inactivation),[3]; 2 mg/L TTO,0.83 Log10
same,Average Percent Oocyst Inactivation of all Variables,[3]; 2 mg/L TTO,65.0%
same,"Infectious Oocytes × 100,000 using 0% Cocktail","[3]; 2 mg/L TTO, 10 mg/L persulfate, 0% cocktail","2 × 100,000"
same,Log10 reduction,"[3]; 2 mg/L TTO, 10 mg/L persulfate, 0% cocktail, 60 min",1.8 Log10
same,"Infectious Oocysts × 100,000 using 1% Cocktail","[3]; 2 mg/L TTO, 10 mg/L persulfate, 1% cocktail","35 × 100,000"
same,"Average Infectious Oocysts × 100,000",[3]; 3 mg/L TTO,"13 × 100,000"
same,Average Log10 Reduction of Viable Oocysts (Inactivation),[3]; 3 mg/L TTO,1.2 Log10
same,Average Percent Oocyst Inactivation of all Variables,[3]; 3 mg/L TTO,87.0%
same,Log10 reduction,"[3]; 3 mg/L TTO, 0% cocktail, 60 min",1.3 Log10
same,"Infectious Oocysts × 100,000 using 1% Cocktail","[3]; 3 mg/L TTO, 15 mg/L persulfate, 1% cocktail","2 × 100,000"
same,Log10 oocyst reduction,[3]; [5],1.8 Log10
same,inactivation / kill of oocysts,[3]; [5],98%
same,effectiveness of inactivation with cocktail versus average inactivation of infectious oocysts,"[3]; 3 mg/L TTO, cocktail present",6.5 times
same,Log10 reduction,[3]; [6],1.8 Log10
same,kill of oocysts,[3]; [6],98%
same,Log10 reduction,[3]; [7],1.0 Log10
same,oocyst inactivation relative to stock oocyst control,[3]; [7],90%
same,inactivation,"[3]; cocktail concentration raised to 2%, 60 min","Lesser, but significant inactivations"
same,Log10 reduction/inactivation,"[3]; other test matrices (2, 5, 10 mg/L, with and without 1% cocktail), 60 min",less than a one Log10 reduction/inactivation
same,concentration that kills the organisms,E. coli,1-2 ppm
same,inactivation of oocysts,"[1]; 1% cocktail, 3 hours, 1×10^3 oocysts in 50 ml HMEM",19.4%
same,viable oocysts by excystation,[1]; 2 ppm tetrasilver tetraoxide and 10 ppm potassium monopersulfate,1.2+/−1.1%
same,kill,[1]; [8],98.8%
same,log10 reduction in infectious Cryptosporidium parvum,[1]; [8],2 log10 and 2.0 log10
same,toxicity to aquatic species,aquatic species,toxic
same,mutagenicity,[4],not mutagenic
same,toxicity to avian species,avian species,practically non-toxic
